According to patent US11202871B2, “Devices for evaporation and inhalation of active agents” (Emplicure AB, priority 2016, dated 2021):
Counter-ions that a name gives are not always drawn. Like-named read-outs stand apart in the source and are kept apart here. One block for each compound: values may come before it.

Tests used:
[1] = Oven heating of aluminium oxide ceramic discs loaded with ibuprofen; amount remaining by UV; type: physicochemical; details: Al2O3 discs, oven 250° C. for 15 minutes
Description: Ceramic discs comprising ibuprofen (IOL Chemicals and Pharmaceuticals Ltd, India) were prepared using aluminium oxide (Al2O3; Keranova, Sweden) as follows.
(§3) Ceramic discs (Al2O3) with different pore sizes (0.25, 1, 6, 15 and 30 μm) were prepared in two sizes: (i) 63 mm in diameter and 6.3 mm in thickness (pore sizes 0.25, 1 and 6 μm); and (ii) 48 mm in diameter and 6.3 mm in thickness (pore sizes 15 and 30 μm). The porosity was approximately 40% vol and the density 3.75 g/cm^3 for all discs according to product specification.
The discs (pore sizes 0.25, 1, 6, 15 and 30 μm) were soaked in a 400 ml in phosphate buffer with pH 7.4 (one phosphate buffer saline tablet (Sigma-Aldrich, USA) dissolved in 200 ml deionized water) with a concentration of 408.5 μg/ml ibuprofen for 24 hours. The discs were dried in room temperature for 24 hours. […] All discs were measured for concentration of ibuprofen in 400 ml phosphate buffer pH 7.4 at 37° C. (USP paddle method (paddle speed 50 rpm), VanKel 7025, Varian Inc, USA) and the concentration for ibuprofen was measured using a UV spectrophotometer Shimadzu 1800, Japan at a wavelength of 220 nm to determine the amount of ibuprofen in the ceramic discs. The amount of ibuprofen in control discs was measured after 15 hours (i.e. after maximum drug release) and in heat treated discs after 1.5 hours (i.e. the maximal amount drug was at this time point released).

[2] = Text: (§1) Calcium sulphate alpha hemihydrate (CaS) was obtained from Bo Ehrlander AB (Sweden). Clonidine hydrochloride was obtained from PCAS (Finland). Shaped silicon rubbers were used as molds for coins (diameter: 12 mm, thickness: 2 mm). The calcium sulphate was mixed with powder of Clonidine hydrochloride (0.07 g Clonidine hydrochloride/g calcium sulphate) and deionised water (Liquid/Powder ratio of 0.4 (w/w)) to form a homogenous paste, which was used to fill the rubber molds. Once the paste had been applied, the molds were set to dry for at least 12 h under ambient conditions.
The oven temperature was set to approximately 250° C.
(§2) Each coin was weighed and immersed into a beaker containing 200 ml of deionised water. […] The sample was characterized by Shimadzu LC-2030 (Germany) HPLC system with a Genesis C18 analytical column 4 μm (100×2.1 mm i.d.) with a mobile phase of acetonitrile/phosphoric acid, pH 3 (11/89). The wavelength was set to 220 nm.
The reference samples represent the amount of clonidine hydrochloride mg/g calcium sulphate that was loaded before heat treatment.

[3] = calcium sulphate coins, solution 50 μl, 5 mg/ml dispensed; oven approx. 250° C., 0 to 15 minutes
Description: as §1, with “with” for “with powder of Clonidine hydrochloride (0.07 g Clonidine hydrochloride/g calcium sulphate) and”, “When” for “Once”, “was” for “had been”
Clonidine hydrochloride solution (50 μl, 5 mg/ml) was dispensed onto the calcium sulphate coins. When the solution was applied, the coins were set to dry for at least 12 h under ambient conditions.
The temperature was set to approximately 250° C.
as §2
The reference samples represent the amount of clonidine hydrochloride that was loaded before heat treatment.

[4] = for amount of nicotine detected in the reference sample (not heated) / nicotine detected in coins after heating versus reference: pure nicotine (20 mg) dispensed; for amount of nicotine detected in the reference sample (not heated): dried 24 hours
[5] = calcium sulphate rods soaked 24 hours in pure nicotine; heated 5*10 sec.; max 315° C., 6 W
Text: Aluminium oxide ceramic rods and calcium sulphate rods were obtained as described in Example 3. Nicotine and nicotine solutions were supplied and applied, and nicotine levels were detected as described in Example 3.
Samples were heated using a prototype e-cigarette device (X-Cube II, Smoke) obtained from Devex Mekatronik AB (Sweden). The device is derived from the commercially available e-cigarette X-Cube.
The sample in the device was heated up by a coil that is wrapped around the sample.
The end of the device was connected to a vial via a silicon hose. The vial contained 1 ml of deionised water. To simulate smoking a rod was put into the device and puffing was performed. Puffing involves a sequence of 5 puffs that are each 10 seconds long. After puffing, the hose was removed and flushed with the water. The water was analysed for concentration of nicotine.

[6] = calcium sulphate coins, nicotine solution 50 μl, 18 mg/ml dispensed
Text: Calcium sulphate coins were obtained as described in Example 3. For the indirect induction test a magnet was molded into the coin. Nicotine and nicotine solutions were supplied and applied, and nicotine levels were detected as described in Example 3.
Metal plate for induction cooker was obtained from Haneström (Sweden). Induction cooker Wilfa ICP-2000 was obtained from Media Markt (Sweden). Magnets (10*1 mm, Samarium Cobalt magnets, 0.4 kg pull) were obtained from first4magnets (UK). IR-thermometer (MS6520A) was obtained from Mastech (USA).
Heat treatment by indirect induction was carried out by placing a metal plate onto the induction cooker. The ceramic coins containing a magnet was applied onto the metal plate and heated on maximum effect (exact temperature was not measured; see FIG. 10).

[7] = Liquid/Powder 0.4 (w/w)
Description: Calcium sulphate alpha hemihydrate (CaS) was obtained from Bo Ehrlander AB (Sweden). Shaped silicon rubbers were used as molds for coins (diameter: 12 mm, thickness: 2 mm). The calcium sulphate was mixed with a nicotine solution with a concentration of 5 or 20 mg/ml of nicotine (Liquid/Powder ratio of 0.4 (w/w)) to form a homogenous paste, which was filled in the rubber molds. Once the paste was applied, the molds were set to dry for at least 12 h under ambient conditions.
The temperature was set to approximately 200° C.
The sample was characterized by UV-spectrophotometer at a wavelength of 219 nm. The amount nicotine in the samples were then calculated.

[8] = Al2O3 discs, oven 188° C. for 15 minutes
Description: as §3
The discs were dried in room temperature for 24 hours. The discs were heated in an oven at 188° C. for 15 minutes, the control discs were not heated.

[9] = Oven heating of Al2O3 rods soaked in sumatriptan succinate solution; type: physicochemical
Text: Aluminium oxide ceramic rods were obtained from […] (Sweden): […] Oven […] 218 was obtained from Wilfa, (Norway).

[10] = Oven heating of calcium sulphate coins pre-loaded with sumatriptan succinate; type: physicochemical; details: pre-loaded calcium sulphate coins (0.07 g/g calcium sulphate); oven approx. 250° C.
[11] = calcium sulphate rods soaked in pure nicotine, oven approx. 200° C.

amount of ibuprofen remaining after heat treatment ([1]; pore sizes 0.25, 1, 6, 15 and 30 μm, all samples): zero
degradation of ibuprofen on heating (changes in absorbance at other wavelengths) [1]: no significant degradation
Compound: CC(C)Cc1ccc(C(C)C(=O)O)cc1 (stereo not drawn) [ibuprofen]

amount of clonidine hydrochloride contained in a coin ([2]; calcium sulphate coins, 0.07 g clonidine hydrochloride/g calcium sulphate, coin approx. 0.3 g): approximately 17 mg
time within which almost all of the clonidine hydrochloride was released when heated ([2]; pre-loaded calcium sulphate coins, oven approx. 250° C.): ≤ 15 min
amount of clonidine hydrochloride present in the coins during heating [3]: decreased significantly over time
Compound: Clc1cccc(Cl)c1N=C1NCCN1 [clonidine hydrochloride]

Compound: CN1CCCC1c1cccnc1 (stereo not drawn) [nicotine]
time within which almost all of the nicotine was released when heated ([4]; aluminium oxide rods soaked in 6 mg/ml nicotine solution (diluted e-juice) 24 hours, oven approx. 200° C.): 5 to 10 min
amount of nicotine the rods were able to absorb ([4]; aluminium oxide rods soaked in 6 mg/ml nicotine solution for 24 hours): approximately 135 μg nicotine/rod
amount of nicotine detected in the reference sample (not heated) ([4]; calcium sulphate coins): lower than 20 mg
nicotine detected in coins after heating versus reference ([4]; calcium sulphate coins, oven approx. 200° C.): a lower release of nicotine was detected after heating
amount of nicotine the rods were able to absorb ([4]; calcium sulphate rods soaked in pure nicotine for 24 hours): approximately 20 mg nicotine/rod
nicotine release during heating [4, 11]: Most of the nicotine was released during heating
nicotine release, 5 min versus 1 min of heating [4, 11]: a higher amount was released during 5 min of heating compared to 1 min of heating
amount of nicotine detected in the reference sample (not heated) ([4]; geopolymer coins): about 16 mg
nicotine detected in coins after heating versus reference ([4]; geopolymer coins, oven approx. 200° C.): a lower release of nicotine was detected after heating
nicotine release on heat treatment in e-cigarette device [5]: a heat treatment in the device will result in a nicotine release
nicotine release on induction heating, unheated plate ([6]; heated about 1 or about 5 minutes): Most of the nicotine was released within the first minute
nicotine release on induction heating, pre-heated plate ([6]; plate at least 150° C., heated 5 seconds): a substantial quantity of nicotine was released
amount of nicotine contained in the coins ([7]; calcium sulphate coins mixed with 5 mg/ml nicotine solution): approximately 180 μg
amount of nicotine contained in the coins ([7]; calcium sulphate coins mixed with 20 mg/ml nicotine solution): ~390 µg
amount of nicotine remaining after heat treatment compared to pre-heat treatment control ([8]; pore sizes 0.25, 6, 15 and 30 μm, all samples): very significantly reduced
degradation of nicotine on heating (changes in absorbance at other wavelengths) [8]: no significant degradation

Compound: CNS(=O)(=O)Cc1ccc2[nH]cc(CCN(C)C)c2c1 [sumatriptan succinate]
amount of sumatriptan succinate the rods were able to absorb ([9]; Al2O3 rods soaked in 20 mg/ml solution for 24 hours): approximately 1 mg sumatriptan succinate/rod
time within which almost all of the sumatriptan succinate was released when heated ([9]; Al2O3 rods soaked in 20 mg/ml solution, oven approx. 300° C.): 5 to 15 min
time within which almost all of the sumatriptan succinate was released when heated [10]: ≤ 15 min
